# Data from patent US20230190774A1, “METHOD OF USING SUBSTRATES OF AKR1Bl/AKR1B10 AS ANTI-CANCER DRUGS” (Beijing Normal University Hong Kong Baptist University …, priority 2015, published 2023).
# Where a SMILES comes first, the peptide text is derived from it. The star is where a group is joined. Cbz = O=C(OCc1ccccc1)*
# Assays:
# [1] = biological target: AKR1B10 (Homo sapiens, UniProt O60218); conditions: ND = no detectable activity or less than 32 nmol/min/mg; cited from earlier work
# [2] = biological target: AKR1B1 (Homo sapiens, UniProt P15121); conditions: ND = no detectable activity or less than 32 nmol/min/mg; cited from earlier work
# [3] = test system: CaCo2 cells; assay: Cytotoxicity assay (cell survival rate, MTT); assay type: cell-based; conditions: BSO with 1.25/0.625 mM substrate, NAC with 2.5/1.25 mM substrate
# Experimental: (§1) HepG2 cells, SKOV3 cells, HCT116 cells and CaCo2 cells were cultured in DMEM medium, SW480 cells in 1640 medium, and HT29 cells in McCoy’s 5A medium. All cell culture media were supplemented with 10% FBS, 1% PSN, and cells were cultured in a humidified incubator containing 5% CO2 at 37° C. In cytotoxicity assays, cells were seeded at 1 × 10^5 cells/well in 96 well plates with full medium. In GSH assay and Western blot analysis, cells were seeded at 3× 10^6 cells/well in 6 well plates.
# (§2) The AKR1Bs substrates’ cytotoxicity was assessed by cell survival rate using MTT assay. After the cells were treated with the substrates for the length of time indicated, MTT was added to a final concentration of 0.5 mg/ml in each well of a 96-well plate, and the plates were incubated at 37° C. for 4 hour. Then DMSO was added to dissolve the formazan product, the amount of which is proportional to the number of live cells. The absorbance of dissolved dye was measured at 540 nm using an automatic microplate reader.
# [4] = test system: HepG2 cells; assay: Cytotoxicity assay (cell survival rate, MTT); assay type: cell-based; conditions: BSO (0.3 mM) with 1.25/0.625 mM substrate, NAC with 2.5/1.25 mM substrate
# Experimental: as §1, §2
# [5] = test system: HCT116 cells; assay: Cytotoxicity assay (cell survival rate, MTT); assay type: cell-based; conditions: BSO with 1.25/0.625 mM substrate, NAC with 2.5/1.25 mM substrate
# Experimental: as §1, §2
# [6] = test system: SKOV3 cells; assay: Cytotoxicity assay (cell survival rate, MTT); assay type: cell-based; conditions: BSO (0.3 mM) with 1.25/0.625 mM substrate, NAC with 2.5/1.25 mM substrate
# Experimental: as §1, §2
# [7] = test system: SW480 cells; assay: Cytotoxicity assay (cell survival rate, MTT); assay type: cell-based; conditions: pretreated 24 hours before addition of 2DG
# Experimental: as §2, with “HepG2 cells, SKOV3 cells, HCT116 cells and CaCo2 cells were cultured in DMEM medium, SW480 cells in 1640 medium, and HT29 cells in McCoy’s 5A medium. […] In cytotoxicity assays, cells were seeded at 1 × 10^5 cells/well in 96 well plates with full medium. In GSH assay and Western blot analysis, cells were seeded at 3× 10^6 cells/well in 6 well plates. The AKR1Bs” for “The AKR1Bs”
# [8] = test system: HT29 cells; assay: Cytotoxicity assay (cell survival rate, MTT); assay type: cell-based; conditions: pretreated 24 hours before addition of 2DG
# Experimental: as §2, with “HepG2 cells, SKOV3 cells, HCT116 cells and CaCo2 cells were cultured in DMEM medium, SW480 cells in 1640 medium, and HT29 cells in McCoy’s 5A medium. […] In cytotoxicity assays, cells were seeded at 1 × 10^5 cells/well in 96 well plates with full medium. In GSH assay and Western blot analysis, cells were seeded at 3× 10^6 cells/well in 6 well plates. The AKR1Bs” for “The AKR1Bs”
# [9] = test system: AKR1B10; assay: Western blot of AKR1B10 protein level in treated cells; assay type: cell-based, human
# Experimental: as §1
# (§3) Cells were lysed on ice with the protein extraction reagent. Total protein (30 µg) per sample were loaded onto 10% SDS-polyacrylamide gels and separated at 75V, and then electrotransferred to polyvinylidene difluoride (PVDF) membranes overnight at 15 V. Membranes were then soaked in 5% nonfat milk in TBS at room temperature for 1 hour and then incubated with rabbit anti-AKR1B1 antibodies (1:3000) or rabbit anti-AKR1B10 antibodies (1:3000) at room temperature for 2 hours. After being washed, the membranes were incubated in HRP-conjugated goat anti-rabbit or goat anti-mouse IgG secondary antibodies (1:5000) for 1 hour at room temperature, followed by washing and incubation with ECL reagents for 1 min. β-actin monoclonal mouse antibodies (1:5000) was used as reference to assess the relative amounts of proteins loaded per lane.
# [10] = test system: AKR1B1; assay: Western blot of AKR1B1 protein level in treated cells; assay type: cell-based, human
# Experimental: as §1, §3
# Sequence of AKR1B10 (Homo sapiens, UniProt O60218) (O60218 whole entry): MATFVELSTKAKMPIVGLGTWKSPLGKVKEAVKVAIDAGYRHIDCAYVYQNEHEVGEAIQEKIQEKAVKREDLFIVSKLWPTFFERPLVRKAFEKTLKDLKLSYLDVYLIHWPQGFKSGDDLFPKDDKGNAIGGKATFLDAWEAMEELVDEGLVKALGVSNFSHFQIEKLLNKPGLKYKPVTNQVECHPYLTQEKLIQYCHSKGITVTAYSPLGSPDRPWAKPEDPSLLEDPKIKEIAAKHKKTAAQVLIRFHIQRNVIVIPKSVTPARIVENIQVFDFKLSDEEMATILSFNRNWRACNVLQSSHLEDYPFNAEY
smiles,measurement,setting,value
O=C[C@H](O)[C@@H](O)[C@@H](O)[C@H](O)CO [D-Galactose],"AKR1B10 activity, amount of NADPH (nmol) oxidized per min per mg of protein",[1],65 nmol/min/mg
same,"AKR1B1 activity, amount of NADPH (nmol) oxidized per min per mg of protein",[2],193 nmol/min/mg
O=Cc1ccccn1 [Pyridine-2-aldehyde],"AKR1B10 activity, amount of NADPH (nmol) oxidized per min per mg of protein",[1],4645 nmol/min/mg
same,"AKR1B1 activity, amount of NADPH (nmol) oxidized per min per mg of protein",[2],632 nmol/min/mg
O=C[C@H](O)[C@@H](O)[C@H](O)[C@H](O)CO [D-Glucose],"AKR1B10 activity, amount of NADPH (nmol) oxidized per min per mg of protein",[1],65 nmol/min/mg
same,"AKR1B1 activity, amount of NADPH (nmol) oxidized per min per mg of protein",[2],129 nmol/min/mg
"CC(=O)N[C@@H](CS)C(=O)O [NAC, N-acetyl-cysteine]",Effect on toxicity of glyceraldehyde and diacetyl,[3],able to protect the cells
same,Effect on toxicity of glyceraldehyde and diacetyl,[4],able to protect the cells
same,Effect on toxicity of glyceraldehyde and diacetyl,[5],able to protect the cells
same,Effect on toxicity of glyceraldehyde and diacetyl,[6],able to protect the cells
CC(C)C[C@@H](C=O)NC(=O)[C@H](CC(C)C)NC(=O)[C@H](CC(C)C)NC(=O)OCc1ccccc1 [MG-132] (Cbz-Leu-Leu-Leu-aldehyde),Sensitivity to 2DG after pretreatment,[7],significantly more cells were killed by 2DG
same,Sensitivity to 2DG after pretreatment,[8],significantly more cells were killed by 2DG
same,AKR1B10 protein level (western blot),[9]; HT29 cells,able to increase
same,AKR1B10 protein level (western blot),[9]; SW480 cells,able to increase
same,AKR1B1 protein level (western blot),[10]; HT29 cells,able to increase
same,AKR1B1 protein level (western blot),[10]; SW480 cells,able to increase
